{"source": "patent US20250073186A1", "about": "“COMBINATION TREATMENT METHODS” (Rose Research Center, LLC, priority 2021, published 2025)", "key": {"smokers [1]": {"system": "smokers", "settings": "bupropion alone; cited from earlier work"}, "cigarette smoking adults": {"system": "cigarette smoking adults", "assay": "Open-label switching study: side effects (AE/SAE reporting) and adherence", "assay_type": "in vivo, human", "settings": "zonisamide added to bupropion", "procedure": "There was a data collection period of at least five days to obtain baseline data on use of combustible cigarettes. Participants enrolled in the study received a G6 e-cigarette at V2 for ad libitum use.\nAt each session, expired air CO was measured along with blood pressure, heart rate, respiratory rate and body weight. Participants also completed questionnaires rating subjective effects of smoking and e-cigarette use. Participants were given enough cartomizers and study drugs to last until their next scheduled session, along with an extra 4 days' worth to allow for flexibility in case sessions need to be rescheduled. E-cigarette usage and study drug compliance were tracked not only by self-reported number of occasions used, but also by cartomizer counts (used or unused) and returned study drugs.\nAE/SAE Reporting AEs/SAEs were assessed using questionnaires and interviews at the indicated time points and spontaneous reporting from the time of ICF signature until the EOS for the participant."}, "smokers [2]": {"system": "smokers", "settings": "cited from earlier work"}}, "data": [{"smiles": "CC(NC(C)(C)C)C(=O)c1cccc(Cl)c1", "note": "(centres unmarked) [bupropion]", "values": [{"measurement": "typical abstinence rate", "setting": "smokers [1]", "value": "~25", "unit": "%"}]}, {"smiles": "NS(=O)(=O)Cc1noc2ccccc12", "note": "[zonisamide]", "values": [{"measurement": "effect on adverse events associated with bupropion, such as insomnia", "setting": "cigarette smoking adults", "value": "appeared to reduce incidences of adverse events associated with bupropion"}, {"measurement": "effect on anger, restlessness and impatience", "setting": "smokers [2]; during smoking abstinence", "value": "decrease anger, restlessness and impatience"}, {"measurement": "effect on ad libitum smoking", "setting": "smokers [2]; in vivo", "value": "reduce ad libitum smoking"}, {"measurement": "effect on craving for cigarettes", "setting": "smokers [2]; in vivo", "value": "relieve craving for cigarettes"}]}]}
